Laboratory results published in patent US10570104B2, “Metabolically programmed metal chelators and uses thereof” (University of Florida Research Foundation, Incorporated, priority 2015, dated 2020).
Entries after “also recorded” stand apart in the source; their conditions may differ. Read-outs that look alike come from different tables or passages of the source.

Experiments:
[1] = cited from earlier work
[2] = po, 300 μmol/kg; historical; cited from earlier work
[3] = log Papp, octanol/TRIS buffer pH 7.4, shake flask direct method; type: physicochemical; details: not told
Excerpt: The redesign of 2 was predicated on the observation that both ligands 2 and 3 were orally active iron chelators in rodents and primates (Table 1), and that when the 4′-(OH) of 2 was methylated, providing (S)-4,5-dihydro-2-(2-hydroxy-4-methoxyphenyl)-4-methyl-4-thiazolecarboxylic acid^43 [(S)-4′-(CH3O)-DADFT, 4], there was a remarkable enhancement in both ICE and lipophilicity (log Papp). The log Papp data are expressed as the log of the fraction of the chelator seen in the octanol layer; measurements were done in TRIS buffer, pH 7.4, using a “shake flask” direct method.^49 The more negative the log Papp, the less chelator is in the octanol phase, the less lipophilic. Unfortunately, the increase in ICE of 4 came with a concomitant increase in toxicity.^50 Thus, the delicate balance between the increase in ICE and toxicity with enhanced lipophilicity needed to be understood and exploited.

[4] = po, 150 μmol/kg; historical; cited from earlier work
[5] = Tissue distribution/metabolism of chelators in rats given sc (HPLC); type: in vivo, Sprague-Dawley rats
Description: Collection of Chelator Tissue Distribution Samples from Rodents. Male Sprague-Dawley rats (250-350 g) were given a single subcutaneously injection of the monosodium salts of 8 and 11 prepared as described above at a dose of […]. At times 0.5, 1, 2, 4 and 8 hours after dosing (n=3 rats per time point), the animals were euthanized by exposure to CO2 gas. Blood was obtained via cardiac puncture into vacutainers containing sodium citrate. The blood was centrifuged, and the plasma was separated for analysis. The liver, kidney, heart, and pancreas were removed from the animals and frozen.
Tissue Analytical Methods. Tissue samples of animals treated with 8 were prepared for HPLC analysis by homogenizing them in H2O at a ratio of 1:1 (w/v). Then, as a rinse, CH3OH at a ratio of 1:3 (w/v) was added, and the mixture was stored at −20° C. for 30 min. This homogenate was centrifuged. The supernatant was diluted with H2O, vortexed, and filtered with a 0.2 μm membrane. Analytical separation was performed on a Supelco Discovery RP Amide C16 HPLC system with UV detection at 310 nm as described previously.^44,75 Mobile phase and chromatographic conditions were as follows: solvent A, 5% CH3CN/95% buffer (25 mM KH2PO4+2.5 mM 1-octanesulfonic acid, pH 3.0); solvent B, 60% CH3CN/40% buffer.
Tissue samples of animals treated with 11 were prepared for HPLC analysis by homogenizing them in 0.5 N HClO4 at a ratio of 1:3 (w/v). Then, as a rinse, CH3OH at a ratio of 1:3 (w/v) was added, and the mixture was stored at −20° C. for 30 min. This homogenate was centrifuged. The supernatant was diluted with 95% buffer (25 mM KH2PO4, pH 3.0)/5% CH3CN, vortexed, and filtered with a 0.2 μm membrane. Analytical separation was performed on a Supelco Ascentis Express RP-Amide HPLC system with UV detection at 310 nm as described previously. Mobile phase and chromatographic conditions were as for 8.
Ligand concentrations were calculated from the peak area fitted to calibration curves by nonweighted least-squares linear regression with Shimadzu Class-VP 7.4 software.

[6] = for Rat ICE (%): 300 μmol/kg, monosodium salt
Description: Sample collection and handling are as previously described.^38,40
Drug Preparation and Administration. In the iron clearing experiments, the rats were given 8-14 orally at a dose of 300 μmol/kg. […] The chelators were administered as their monosodium salts (prepared by the addition of 1 equiv of NaOH to a suspension of the free acid in distilled water).
Calculation of Chelator Iron Clearing Efficiency (ICE). The term “ICE” is used as a measure of the amount of iron excretion induced by a chelator. The ICE, expressed as a percent, is calculated as (ligand-induced iron excretion/theoretical iron excretion)×100. […] The theoretical iron outputs of the chelators were generated on the basis of a 2:1 ligand:iron complex. The efficiencies in the rats and monkeys were calculated as set forth elsewhere.^37 Data are presented as the mean±the standard error of the mean; p-values were generated via a one-tailed Student's t-test in which the inequality of variances was assumed, and a p-value of <0.05 was considered significant.

[7] = Chelator-induced iron clearance (ICE) in iron-overloaded Cebus apella primates; type: in vivo, Cebus apella monkeys; details: 75 μmol/kg, monosodium salt
Description: Iron Loading of Cebus apella Monkeys. The monkeys (3.5-6.5 kg) were iron overloaded with intravenous iron dextran as specified in earlier publications to provide about 500 mg of iron per kg of body weight; the serum transferrin iron saturation rose to between 70 and 80%.^38,40 At least 20 half-lives, 60 days, elapsed before any of the animals were used in experiments evaluating iron-chelating agents.
Primate Fecal and Urine Samples. Fecal and urine samples were collected at 24 hours intervals and processed as described previously^38,40,74 Briefly, the collections began 4 days prior to the administration of the test drug and continued for an additional 5 days after the drug was given. Iron concentrations were determined by flame absorption spectroscopy as presented in other publications.^38′^40
Drug Preparation and Administration.
Calculation of Chelator Iron Clearing Efficiency (ICE).

In the case of CCCCOc1ccc(C2=N[C@@H](C(=O)O)CS2)c(O)c1 [4′-butoxy analogue of 2, (S)-2-(4-butoxy-2-hydroxyphenyl)-4,5-dihydro-4-thiazolecarboxylic acid], the time of deaths ([1]; same scenario as with 10) is given as ≤ 24 h.

In the case of C[C@]1(C(=O)O)CSC(c2ccccc2O)=N1 [Compound 1a, (S)-4,5-dihydro-2-(2-hydroxyphenyl)-4-methyl-4-thiazolecarboxylic acid], the “gastrointestinal toxicity” value ([1]; in vivo) is given as “serious gastrointestinal (GI) problems” and the “nephrotoxicity” value ([1]; in vivo) is given as “not overtly nephrotoxic”.

For C[C@]1(C(=O)O)CSC(c2cccc(O)c2O)=N1 [Compound 3, (S)-2-(2,3-dihydroxyphenyl)-4,5-dihydro-4-methyl-4-thiazolecarboxylic acid], the “Rodent ICE (%)” value [2] is listed as 4.6 ± 0.9%, the “Log Papp” value [3] is listed as −1.17 and the “Primate ICE (%)” value [4] is listed as 23.1 ± 5.9%.

With C[C@]1(C(=O)O)CSC(c2ccc(OCCOCCO)cc2O)=N1 [Compound 8, (S)-4,5-dihydro-2-[2-hydroxy-4-(5-hydroxy-3-oxapentyloxy)phenyl]-4-methyl-4-thiazolecarboxylic acid] the “Log Papp” value [3] was −0.53, the “share of total drug concentration” value ([5]; sc 7, plasma, 0.5 hour) was 5% and the “share of drug (parent+metabolite)” value ([5]; sc 8, 300 μmol/kg, liver, 0.5 hour) was 53%. The “detection in liver” value ([5]; sc 8, 300 μmol/kg, liver, 8 hours) was “very little parent alcohol 8”, the “proportion of 8 converted to 9” value ([5]; sc 8, 300 μmol/kg, plasma, 0.5 hour post drug) was ~60% and the “detection in plasma” value ([5]; sc 8, 300 μmol/kg, plasma, 8 hour) was “Neither the parent 8 nor the metabolite 9 was found at the 8 hour time point”. The “conversion of 8 to 9” value ([5]; sc 8, 300 μmol/kg, tissues) was “very efficiently oxidized to carboxylic acid 9; also recorded: very efficiently converted to acid 9; also recorded: very quickly oxidized to 9”, the “Rat ICE (%)” value ([6]; po) was 15.4 ± 5.6% and the “Cebus ICE (%)” value ([7]; po) was 9.8±3.4%.

For COCCCCCCOc1ccc(C2=N[C@@](C)(C(=O)O)CS2)c(O)c1 [Compound 10, (S)-4,5-dihydro-2-[2-hydroxy-4-(6-methoxyhexyloxy)phenyl]-4-methyl-4-thiazolecarboxylic acid], the “Log Papp” value [3] was 0.95, the “time of death post drug” value ([6]; po 300 μmol/kg, bile duct-cannulated rats, one animal) was “about 22 hours” and the “drug-induced iron excretion, peak” value ([6]; po 300 μmol/kg, 6 hours post drug) was 300 μg/kg of iron. For the same compound, the drug-induced iron excretion ([6]; po 300 μmol/kg, 24 hours post dosing) was 80 μg/kg of iron, the “Rat ICE (%)” value ([6]; po) was 15.8 ± 3.7% and the “overt toxicity” value ([6]; rats, po 300 μmol/kg, single dose) was “profoundly toxic; also recorded: very toxic; also recorded: Toxic in Rats”.

With C[C@]1(C(=O)O)CSC(c2ccc(OCCCCCC(=O)O)cc2O)=N1 [Compound 12, (S)-4,5-dihydro-2-[2-hydroxy-4-(5-carboxypentyloxy)phenyl]-4-methyl-4-thiazolecarboxylic acid] the “Log Papp” value [3] was −1.90, the “detection in heart” value ([5]; sc 11, heart) was “not found in the cardiac tissue at any of the time points” and the “detection in kidney” value ([5]; sc 11, kidney) was “found at 0.5 and 1 hour post drug”. For the same compound, the “detection in liver” value ([5]; sc 11, liver) was “not detected in the liver 2, 4, or 8 hours post dosing”, the “share of total drug (parent+metabolites)” value ([5]; sc 11, liver, 0.5 hour) was 11% and the “share of total drug (parent+metabolites)” value ([5]; sc 11, liver, 1 hour) was 2%. The “detection in pancreas” value ([5]; sc 11, pancreas) was “not found at any of the time points”, the “detection in plasma” value ([5]; sc 11, plasma) was “None of the first oxidation product of alcohol 11, the dicarboxylic acid 12, was detected in the plasma” and the “Rat ICE (%)” value ([6]; po) was 8.8 ± 1.8%. For the same compound, the “Rat ICE (%)” value ([6]; sc) was 6.5 ± 1.5%, the “Cebus ICE (%)” value ([7]; po) was 10.6±4.0% and the “Cebus ICE (%)” value ([7]; sc) was 18.8±8.7%.

With C[C@]1(C(=O)O)CSC(c2ccc(OCCCC(=O)O)cc2O)=N1 [Compound 13, (S)-4,5-dihydro-2-[2-hydroxy-4-(3-carboxypropyloxy)phenyl]-4-methyl-4-thiazolecarboxylic acid] the “Log Papp” value [3] was −2.21, the “detection in heart” value ([5]; sc 11, heart) was “not found in the later time points” and the tissue concentration ([5]; sc 11, heart, 0.5 hour) was ~46 nmol/g wet weight. For the same compound, the tissue concentration ([5]; sc 11, heart, 1 hour) was ~46 nmol/g wet weight, the “detection in kidney” value ([5]; sc 11, kidney) was “not detectable 8 hours post dosing” and the tissue concentration ([5]; sc 11, kidney, 0.5 hour) was ~300 nmol/g wet weight. The tissue concentration ([5]; sc 11, kidney, 1 hour) was ~300 nmol/g wet weight, the “detection in liver” value ([5]; sc 11, liver) was “no 13 remained in the liver” and the “share of total drug (parent+metabolites)” value ([5]; sc 11, liver, 0.5 hour) was 71%. The “share of total drug (parent+metabolites)” value ([5]; sc 11, liver, 1 hour) was 59%, the “share of total drug (metabolites)” value ([5]; sc 11, liver, 2 hours) was 66% and the “share of total drug (metabolites)” value ([5]; sc 11, liver, 4 hours) was 70%. The tissue concentration ([5]; sc 11, pancreas, 0.5 hour) was 19 nmol/g wet weight, the tissue concentration ([5]; sc 11, pancreas, 1 hour) was 23 nmol/g wet weight and the “share of total (parent+metabolites)” value ([5]; sc 11, plasma, 0.5 hour) was 62%. The “share of total (parent+metabolites)” value ([5]; sc 11, plasma, 4 hours) was 50%, the “share of total (parent+metabolites)” value ([5]; sc 11, plasma, 8 hours) was 65% and the “Rat ICE (%)” value ([6]; po) was 3.7 ± 1.7%. The “Rat ICE (%)” value ([6]; sc) was 4.3 ± 1.1%, the “Cebus ICE (%)” value ([7]; po) was 5.4±1.5% and the “Cebus ICE (%)” value ([7]; sc) was 18.1±7.5%.

With C[C@]1(C(=O)O)CSC(c2ccc(OCC(=O)O)cc2O)=N1 [Compound 14, (S)-4,5-dihydro-2-[2-hydroxy-4-(carboxymethoxy)phenyl]-4-methyl-4-thiazolecarboxylic acid] the “Log Papp” value [3] was −1.98, the “detection in heart” value ([5]; sc 11, heart) was “not found in the 2-8 hour time points” and the tissue concentration ([5]; sc 11, heart, 0.5 hour) was 17 nmol/g wet weight. It also gave a tissue concentration ([5]; sc 11, heart, 1 hour) of 23 nmol/g wet weight, a tissue concentration ([5]; sc 11, kidney, 0.5 hour) of 156 nmol/g wet weight and a tissue concentration ([5]; sc 11, kidney, 1 hour) of 201 nmol/g wet weight. For the same compound, the tissue concentration ([5]; sc 11, kidney, 2 hours) was 161 nmol/g wet weight, the tissue concentration ([5]; sc 11, kidney, 8 hours) was 5 nmol/g wet weight and the “detection in liver” value ([5]; sc 11, liver) was “only trace amounts of 14 were detected”. The “share of total drug (parent+metabolites)” value ([5]; sc 11, liver, 0.5 hour) was 18%, the “share of total drug (parent+metabolites)” value ([5]; sc 11, liver, 1 hour) was 39% and the “detection in pancreas” value ([5]; sc 11, pancreas) was “Trace amounts of 14 were found at 0.5, 1, and 2 hours post dosing”. The “share of total (parent+metabolites)” value ([5]; sc 11, plasma, 0.5 hour) was 16%, the “share of total (parent+metabolites)” value ([5]; sc 11, plasma, 4 hours) was 50% and the “share of total (parent+metabolites)” value ([5]; sc 11, plasma, 8 hours) was “the remainder”. For the same compound, the “Rat ICE (%)” value ([6]; po) was 2.6 ± 1.6%, the “Rat ICE (%)” value ([6]; sc) was 6.0 ± 1.9% and the “Cebus ICE (%)” value ([7]; po) was 3.0±2.7%. The “Cebus ICE (%)” value ([7]; sc) was 15.9±4.3%.
